Assay results published in patent US8207193B2 (priority 2006, dated 2012).

Molecular target: human muscarinic acetylcholine M3 receptor (M3-ACh) (Homo sapiens, UniProt P20309)
Assay: biochemical
Format: binding
Settings: M3 binding IC50

human muscarinic acetylcholine M3 receptor (M3-ACh), sequence (P20309 whole entry): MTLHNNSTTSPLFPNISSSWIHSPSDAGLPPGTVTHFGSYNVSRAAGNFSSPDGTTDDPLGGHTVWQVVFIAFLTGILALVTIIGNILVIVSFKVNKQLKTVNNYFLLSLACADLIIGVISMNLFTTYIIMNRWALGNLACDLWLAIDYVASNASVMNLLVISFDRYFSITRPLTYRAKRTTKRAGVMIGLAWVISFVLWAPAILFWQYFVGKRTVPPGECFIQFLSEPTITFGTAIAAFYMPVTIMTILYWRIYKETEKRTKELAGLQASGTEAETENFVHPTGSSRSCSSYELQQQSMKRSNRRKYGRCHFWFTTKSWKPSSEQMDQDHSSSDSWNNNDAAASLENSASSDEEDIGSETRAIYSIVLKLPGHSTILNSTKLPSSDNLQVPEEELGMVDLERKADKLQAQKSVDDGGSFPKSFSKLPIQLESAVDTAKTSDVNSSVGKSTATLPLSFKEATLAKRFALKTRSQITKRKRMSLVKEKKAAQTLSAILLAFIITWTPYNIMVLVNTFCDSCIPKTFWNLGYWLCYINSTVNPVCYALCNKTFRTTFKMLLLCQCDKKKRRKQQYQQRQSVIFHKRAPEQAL

First: C[N+]12CCC(CC1)[C@@H](OC(=O)C1(c3ccccc3)CCCCCC1)C2 [Example 2, (3R)-1-Methyl-3-{[(1-phenylcycloheptyl)carbonyl]oxy}-1-azoniabicyclo[2.2.2]octane Iodide]
Second: Cc1ccc(CC[N+]23CCC(CC2)[C@@H](OC(=O)C2(c4ccccc4)CCCCCC2)C3)s1 [Example 25, (3R)-1-[2-(5-Methyl-2-thienyl)ethyl]-3-{[(1-phenylcycloheptyl)carbonyl]oxy}-1-azoniabicyclo[2.2.2]octane Bromide]
The IC50 of the first is higher: 2 to 10 nM for the first, < 2 nM for the second. The second is the more potent here.

`O=C(O[C@H]1C[N+]2(CCCOc3ccccc3)CCC1CC2)C1(c2ccccc2)CCCCCC1` [Example 3, (3R)-1-(3-Phenoxypropyl)-3-{[(1-phenylcycloheptyl)carbonyl]oxy}-1-azoniabicyclo[2.2.2]octane Bromide] and `O=C(O[C@H]1C[N+]2(CCOc3ccccc3)CCC1CC2)C1(c2ccccc2)CCCCCC1` [Example 11, (3R)-1-(2-Phenoxyethyl)-3-{[(1-phenylcycloheptyl)carbonyl]oxy}-1-azoniabicyclo[2.2.2]octane bromide] cannot be ordered by IC50: < 2 nM for the first, < 2 nM for the second.

`O=C(C[N+]12CCC(CC1)[C@@H](OC(=O)C1(c3ccccc3)CCCCCC1)C2)Nc1ccon1` [Example 4, (3R)-1-[2-(Isoxazol-3-ylamino)-2-oxoethyl]-3-{[(1-phenylcycloheptyl)carbonyl]oxy}-1-azoniabicyclo[2.2.2]octane Bromide] and `Cc1cc(NC(=O)C[N+]23CCC(CC2)[C@@H](OC(=O)C2(c4ccccc4)CCCCCC2)C3)no1` [Example 20, (3R)-1-{2-[(5-Methylisoxazol-3-yl)amino]-2-oxoethyl}-3-{[(1-phenylcycloheptyl)carbonyl]oxy}-1-azoniabicyclo[2.2.2]octane Bromide] cannot be ordered by IC50: < 2 nM for the first, < 2 nM for the second.

`O=C(O[C@H]1C[N+]2(Cc3ccc(F)cc3)CCC1CC2)C1(c2ccccc2)CCCCCC1` [Example 5, (3R)-1-(4-Fluorobenzyl)-3-{[(1-phenylcycloheptyl)carbonyl]oxy}-1-azoniabicyclo[2.2.2]octane Bromide] and `O=C(O[C@H]1C[N+]2(Cc3ccc(F)c(F)c3)CCC1CC2)C1(c2ccccc2)CCCCCC1` [Example 8, (3R)-1-(3,4-Difluorobenzyl)-3-{[(1-phenylcycloheptyl)carbonyl]oxy}-1-azoniabicyclo[2.2.2]octane Bromide] cannot be ordered by IC50: > 10 nM for the first, > 10 nM for the second.

First: O=C(O[C@H]1C[N+]2(Cc3ccccc3)CCC1CC2)C1(c2ccccc2)CCCCCC1 [Example 6, (3R)-1-Benzyl-3-{[(1-phenylcycloheptyl)carbonyl]oxy}-1-azoniabicyclo[2.2.2]octane Bromide]
Second: O=C(O[C@H]1C[N+]2(CCc3ccccc3)CCC1CC2)C1(c2ccccc2)CCCCCC1 [Example 26, (3R)-3-{[(1-Phenylcycloheptyl)carbonyl]oxy}-1-(2-phenylethyl)-1-azoniabicyclo[2.2.2]octane Bromide]
The IC50 of the first is higher: > 10 nM for the first, < 2 nM for the second.

First: O=C(O[C@H]1C[N+]2(Cc3cccc(OC(F)(F)F)c3)CCC1CC2)C1(c2ccccc2)CCCCCC1 [Example 7, (3R)-3-{[(1-Phenylcycloheptyl)carbonyl]oxy}-1-[3-(trifluoromethoxy)benzyl]-1-azoniabicyclo[2.2.2]octane Bromide]
Second: COc1cccc(C[N+]23CCC(CC2)[C@@H](OC(=O)C2(c4ccccc4)CCCCCC2)C3)c1 [Example 10, (3R)-1-(3-Methoxybenzyl)-3-{[(1-phenylcycloheptyl)carbonyl]oxy}-1-azoniabicyclo[2.2.2]octane Bromide]
The IC50 of the first is higher: > 10 nM for the first, 2 to 10 nM for the second. The second is the more potent here.

First: O=C(O[C@H]1C[N+]2(Cc3ccc(C(F)(F)F)o3)CCC1CC2)C1(c2ccccc2)CCCCCC1 [Example 9, (3R)-3-{[(1-Phenylcycloheptyl)carbonyl]oxy}-1-{[5-(trifluoromethyl)-2-furyl]methyl}-1-azoniabicyclo[2.2.2]octane Bromide]
Second: O=C(O[C@H]1C[N+]2(CCc3cccc(C(F)(F)F)c3)CCC1CC2)C1(c2ccccc2)CCCCCC1 [Example 27, (3R)-3-{[(1-Phenylcycloheptyl)carbonyl]oxy}-1-{2-[3-(trifluoromethyl)phenyl]ethyl}-1-azoniabicyclo[2.2.2]octane Bromide]
The IC50 of the first is higher: > 10 nM for the first, < 2 nM for the second. The second is the more potent here.

`O=C(O[C@H]1C[N+]2(CCOCc3ccccc3)CCC1CC2)C1(c2ccccc2)CCCCCC1` [Example 12, (3R)-1-[2-(Benzyloxy)ethyl]-3-{[(1-phenylcycloheptyl)carbonyl]oxy}-1-azoniabicyclo[2.2.2]octane Bromide] and `O=C(C[N+]12CCC(CC1)[C@@H](OC(=O)C1(c3ccccc3)CCCCCC1)C2)NCCOc1ccccc1` [Example 18, (3R)-1-{2-Oxo-2-[(2-phenoxyethyl)amino]ethyl}-3-{[(1-phenylcycloheptyl)carbonyl]oxy}-1-azoniabicyclo[2.2.2]octane Bromide] cannot be ordered by IC50: < 2 nM for the first, < 2 nM for the second.

`O=C(C[N+]12CCC(CC1)[C@@H](OC(=O)C1(c3cccs3)CCCCCC1)C2)Nc1ccon1` [Example 13, (3R)-1-[2-(Isoxazol-3-ylamino)-2-oxoethyl]-3-({[1-(2-thienyl)cycloheptyl]carbonyl}oxy)-1-azoniabicyclo[2.2.2]octane Bromide] and `O=C(C[N+]12CCC(CC1)[C@@H](OC(=O)C1(c3ccccc3)CCCCCC1)C2)Nc1cncc(Cl)n1` [Example 31, (3R)-1-{2-[(6-Chloropyrazin-2-yl)amino]-2-oxoethyl}-3-{[(1-phenylcycloheptyl)carbonyl]oxy}-1-azoniabicyclo[2.2.2]octane Bromide] cannot be ordered by IC50: < 2 nM for the first, < 2 nM for the second.

`O=C(C[N+]12CCC(CC1)[C@@H](OC(=O)C1(c3ccccc3)CCCCCC1)C2)N1CCCC1` [Example 14, (3R)-1-(2-Oxo-2-pyrrolidin-1-ylethyl)-3-{[(1-phenylcycloheptyl)carbonyl]oxy}-1-azoniabicyclo[2.2.2]octane Bromide] and `O=C(C[N+]12CCC(CC1)[C@@H](OC(=O)C1(c3ccccc3)CCCCCC1)C2)N1CCOCC1` [Example 15, (3R)-1-(2-Morpholin-4-yl-2-oxoethyl)-3-{[(1-phenylcycloheptyl)carbonyl]oxy}-1-azoniabicyclo[2.2.2]octane Bromide] fall in the same range of IC50: 2 to 10 nM for the first, 2 to 10 nM for the second.

`O=C(C[N+]12CCC(CC1)[C@@H](OC(=O)C1(c3ccccc3)CCCCCC1)C2)Nc1cccnn1` [Example 17, (3R)-1-[2-Oxo-2-(pyridazin-3-ylamino)ethyl]-3-{[(1-phenylcycloheptyl)carbonyl]oxy}-1-azoniabicyclo[2.2.2]octane Bromide] and `O=C(C[N+]12CCC(CC1)[C@@H](OC(=O)C1(c3ccccc3)CCCCCC1)C2)Nc1ccc(Cl)nn1` [Example 21, (3R)-1-{2-[(6-Chloropyridazin-3-yl)amino]-2-oxoethyl}-3-{[(1-phenylcycloheptyl)carbonyl]oxy}-1-azoniabicyclo[2.2.2]octane Bromide] cannot be ordered by IC50: < 2 nM for the first, < 2 nM for the second.

`O=C(C[N+]12CCC(CC1)[C@@H](OC(=O)C1(c3ccccc3)CCCCCC1)C2)c1cccc(F)c1` [Example 19, (3R)-1-[2-(3-Fluorophenyl)-2-oxoethyl]-3-{[(1-phenylcycloheptyl)carbonyl]oxy}-1-azoniabicyclo[2.2.2]octane Bromide] and `O=C(C[N+]12CCC(CC1)[C@@H](OC(=O)C1(c3ccccc3)CCCCCC1)C2)Nc1cccc(F)c1` [Example 22, (3R)-1-{2-[(3-Fluorophenyl)amino]-2-oxoethyl}-3-{[(1-phenylcycloheptyl)carbonyl]oxy}-1-azoniabicyclo[2.2.2]octane Bromide] cannot be ordered by IC50: < 2 nM for the first, < 2 nM for the second.

`O=C(O[C@H]1C[N+]2(CCc3ccc4ccccc4c3)CCC1CC2)C1(c2ccccc2)CCCCCC1` [Example 23, (3R)-1-[2-(2-Naphthyl)ethyl]-3-{[(1-phenylcycloheptyl)carbonyl]oxy}-1-azoniabicyclo[2.2.2]octane Bromide] and `COc1cccc(CC[N+]23CCC(CC2)[C@@H](OC(=O)C2(c4ccccc4)CCCCCC2)C3)c1` [Example 24, (3R)-1-[2-(3-Methoxyphenyl)ethyl]-3-{[(1-phenylcycloheptyl)carbonyl]oxy}-1-azoniabicyclo[2.2.2]octane Bromide] cannot be ordered by IC50: < 2 nM for the first, < 2 nM for the second.

First: O=C(O[C@H]1C[N+]2(CCc3ccc4c(c3)OCO4)CCC1CC2)C1(c2ccccc2)CCCCCC1 [Example 28, (3R)-1-[2-(1,3-Benzodioxol-5-yl)ethyl]-3-{[(1-phenylcycloheptyl)carbonyl]oxy}-1-azoniabicyclo[2.2.2]octane bBromide]
Second: N#Cc1ccc(CC[N+]23CCC(CC2)[C@@H](OC(=O)C2(c4ccccc4)CCCCCC2)C3)cc1 [Example 29, (3R)-1-[2-(4-Cyanophenyl)ethyl]-3-{[(1-phenylcycloheptyl)carbonyl]oxy}-1-azoniabicyclo[2.2.2]octane Bromide]
The IC50 of the first is lower: < 2 nM for the first, 2 to 10 nM for the second. The first is the more potent here.

First: O=C1c2ccccc2C(=O)N1CC[N+]12CCC(CC1)[C@@H](OC(=O)C1(c3ccccc3)CCCCCC1)C2 [Example 30, (3R)-1-[2-(1,3-Dioxo-1,3-dihydro-2H-isoindol-2-yl)ethyl]-3-{[(1-phenylcycloheptyl)carbonyl]oxy}-1-azoniabicyclo[2.2.2]octane Bromide]
Second: O=C(O[C@H]1C[N+]2(CC3(c4ccc(Cl)cc4)CC3)CCC1CC2)C1(c2ccccc2)CCCCCC1 [Example 32, (3R^5)-1-{[1-(4-Chlorophenyl)cyclopropyl]methyl}-3-{[(1-phenylcycloheptyl)carbonyl]oxy}-1-azoniabicyclo[2.2.2]octane Bromide]
The IC50 of the first is higher: > 10 nM for the first, 2 to 10 nM for the second. The second is the more potent here.

For `Cc1cnc(NC(=O)C[N+]23CCC(CC2)[C@@H](OC(=O)C2(c4ccccc4)CCCCCC2)C3)cn1` [Example 33, (3R)-1-{2-[(5-Methylpyrazin-2-yl)amino]-2-oxoethyl}-3-{[(1-phenylcycloheptyl)carbonyl]oxy}-1-azoniabicyclo[2.2.2]octane Bromide], the IC50 was < 2 nM.

Same assay, conditions: pIC50

`C[N+]12CCC(CC1)[C@@H](OC(=O)C1(c3ccccc3)CCCCCC1)C2` [Example 2, (3R)-1-Methyl-3-{[(1-phenylcycloheptyl)carbonyl]oxy}-1-azoniabicyclo[2.2.2]octane Iodide] and `COc1cccc(C[N+]23CCC(CC2)[C@@H](OC(=O)C2(c4ccccc4)CCCCCC2)C3)c1` [Example 10, (3R)-1-(3-Methoxybenzyl)-3-{[(1-phenylcycloheptyl)carbonyl]oxy}-1-azoniabicyclo[2.2.2]octane Bromide] are the same in IC50: 3.16 nM for the first, 3.16 nM for the second.

`O=C(O[C@H]1C[N+]2(CCCOc3ccccc3)CCC1CC2)C1(c2ccccc2)CCCCCC1` [Example 3, (3R)-1-(3-Phenoxypropyl)-3-{[(1-phenylcycloheptyl)carbonyl]oxy}-1-azoniabicyclo[2.2.2]octane Bromide] and `O=C(C[N+]12CCC(CC1)[C@@H](OC(=O)C1(c3ccccc3)CCCCCC1)C2)Nc1ccon1` [Example 4, (3R)-1-[2-(Isoxazol-3-ylamino)-2-oxoethyl]-3-{[(1-phenylcycloheptyl)carbonyl]oxy}-1-azoniabicyclo[2.2.2]octane Bromide] are within 1.5-fold of each other in IC50: 0.0501 nM for the first, 0.0631 nM for the second.

Same assay, conditions: pIC50 of comparative compounds containing a cyclopentyl (C5) ring in place of cycloheptyl (C7)

`C[N+]12CCC(CC1)[C@@H](OC(=O)C1(c3ccccc3)CCCC1)C2` [Comparative Example 2, (3R)-1-Methyl-3-{[(1-phenylcyclopentyl)carbonyl]oxy}-1-azoniabicyclo[2.2.2]octane Iodide, reference compound] was tested, and the IC50 was 39.8 nM.

Same assay, conditions: pIC50 of cycloheptyl (C7) compound

Molecule `C[N+]12CCC(CC1)[C@@H](OC(=O)C1(c3ccccc3)CCCCCC1)C2` [Example 2, (3R)-1-Methyl-3-{[(1-phenylcycloheptyl)carbonyl]oxy}-1-azoniabicyclo[2.2.2]octane Iodide] has an IC50 of 3.16 nM.
